Test results taken from patent US12702660B2, “Method for treating cancer with an oral dosage form of an estrogen receptor-alpha inhibitor” (Eisai R&D Management Co., Ltd., priority 2019, dated 2026).

How the values were obtained:
Type in all cases: in vivo, human
[1] = Safety: treatment-related adverse events and dose-limiting toxicities, phase 1 dose escalation
Description: Example 3 reports Clinical and Genomics Analysis of a single trial. The Study Population in Example 3 was as follows: • Women ≥18 years old with locally advanced or metastatic ER+HER2−BC. • Progression on at least one hormonal therapy and at least one additional therapy/regimen; no maximum number of prior lines of therapy. • ECOG performance status of 0 or 1. • Adequate bone marrow and organ function. • Excluded if had bone-only disease or inflammatory BC.
(§1) Methods were used to analyze whether H3B-6545 inactivates both wild-type and mutant ERα by targeting cysteine 530 and enforcing a unique antagonist conformation. Methods: Women with locally advanced or metastatic HR+BC are treated (tx) with H3B-6545 drug product administered once daily orally by capsule over a 28 day cycle after progression on at least one hormonal therapy and at least one additional therapy/regimen. Dose escalation uses a 3+3 design with the option to backfill previously cleared doses and allows for intrapatient dose escalation. This example explored the safety, pharmacokinetics and pharmacodynamics of H3B-6545 in women with HR+BC to identify a recommended subsequent dose for testing.
• H3B-6545 administered once daily orally over a 28 day cycle. • Dose escalation using a standard 3+3 study design using dose cohorts of 100, 200, 300, 450, and 600 mg QD. • Patients allowed to backfill previously cleared doses. • Intra-patient dose escalation allowed after completion of Cycle 3. […]

[2] = system: ER target gene expression; test: Pharmacodynamics: ER target gene expression; settings: patients, 100 to 450 mg/day
Procedure: as §1

[3] = Plasma PK of H3B-6545 capsules in fasted patients, phase 1 dose escalation; settings: 100 to 450 mg; as of 10 Dec. 2018
[4] = system: locally advanced or metastatic ER+HER2−BC; test: Tumor response and progression-free survival, phase 1 dose escalation; settings: as of 10 Dec. 2018; 32 patients, 100 to 450 mg/day
[5] = 100 mg QD (N = 6), as of Apr. 20, 2019
[6] = 200 mg QD (N = 12), as of Apr. 20, 2019
[7] = 300 mg QD (N = 11), as of Apr. 20, 2019
[8] = 450 mg QD (N = 10), as of Apr. 20, 2019
[9] = 600 mg QD (N = 7), as of Apr. 20, 2019
[10] = Total (N = 46), 100 to 600 mg QD, as of Apr. 20, 2019
[11] = as of Apr. 20, 2019, 100 to 600 mg QD

With `CN(C)C(=O)/C=C/CNCCOc1ccc(/C(=C(/CC(F)(F)F)c2ccccc2)c2ccc3[nH]nc(F)c3c2)cn1` [H3B-6545, (E)-N,N-dimethyl-4-[2-[5-[(Z)-4,4,4-trifluoro-1-(3-fluoro-1H-indazol-5-yl)-2-phenylbut-1-enyl]pyridin-2-yl]oxyethylamino]but-2-enamide] the “Subjects with any TRAE” value [1, 5] was 4, the “TRAE Anaemia, subjects” value [1, 5] was 0 and the “TRAE Aspartate aminotransferase increased, subjects” value [1, 5] was 0. The “TRAE Diarrhoea, subjects” value [1, 5] was 1, the “TRAE Fatigue, subjects” value [1, 5] was 1 and the “TRAE Nausea, subjects” value [1, 5] was 1. The “TRAE Sinus bradycardia, subjects” value [1, 5] was 0, the “Subjects with any TRAE” value [1, 6] was 6 and the “TRAE Anaemia, subjects” value [1, 6] was 1. For the same molecule, the “TRAE Aspartate aminotransferase increased, subjects” value [1, 6] was 1, the “TRAE Diarrhoea, subjects” value [1, 6] was 1 and the “TRAE Fatigue, subjects” value [1, 6] was 2. The “TRAE Nausea, subjects” value [1, 6] was 0, the “TRAE Sinus bradycardia, subjects” value [1, 6] was 2 and the “Subjects with any TRAE” value [1, 7] was 9. The “TRAE Anaemia, subjects” value [1, 7] was 2, the “TRAE Aspartate aminotransferase increased, subjects” value [1, 7] was 1 and the “TRAE Diarrhoea, subjects” value [1, 7] was 2. For the same molecule, the “TRAE Fatigue, subjects” value [1, 7] was 3, the “TRAE Nausea, subjects” value [1, 7] was 3 and the “TRAE Sinus bradycardia, subjects” value [1, 7] was 7. The “Subjects with any TRAE” value [1, 8] was 9, the “TRAE Anaemia, subjects” value [1, 8] was 3 and the “TRAE Aspartate aminotransferase increased, subjects” value [1, 8] was 1. For the same molecule, the “TRAE Diarrhoea, subjects” value [1, 8] was 3, the “TRAE Fatigue, subjects” value [1, 8] was 1 and the “TRAE Nausea, subjects” value [1, 8] was 4. For the same molecule, the “TRAE Sinus bradycardia, subjects” value [1, 8] was 3, the “Subjects with any TRAE” value [1, 9] was 5 and the “TRAE Anaemia, subjects” value [1, 9] was 1. For the same molecule, the “TRAE Aspartate aminotransferase increased, subjects” value [1, 9] was 2, the “TRAE Diarrhoea, subjects” value [1, 9] was 0 and the “TRAE Fatigue, subjects” value [1, 9] was 1. The “TRAE Nausea, subjects” value [1, 9] was 1, the “TRAE Sinus bradycardia, subjects” value [1, 9] was 0 and the “dose-limiting toxicity (DLT)s, number” value ([1]; 600 mg QD cohort, Grade 3 fatigue and Grade 3 rash morbilliform, as of Apr. 20, 2019) was “Two”. The “sinus bradycardia, dose or concentration dependence” value ([1]; 46 patients, 100 to 600 mg QD) was “does not appear to be dose- or concentration-dependent”, the “TRAEs ≥Grade 4” value ([1]; 46 patients, 100 to 600 mg QD, as of Apr. 20, 2019) was “no TRAEs ≥Grade 4” and the “Grade 3 TRAEs, number” value ([1]; 46 patients, 100 to 600 mg QD, two at 450 mg, four at 600 mg, as of Apr. 20, 2019) was “Six”. For the same molecule, the “Subjects with any TRAE” value [1, 10] was 33, the “TRAE Anaemia, subjects” value [1, 10] was 7 and the “TRAE Aspartate aminotransferase increased, subjects” value [1, 10] was 5. For the same molecule, the “TRAE Diarrhoea, subjects” value [1, 10] was 7, the “TRAE Fatigue, subjects” value [1, 10] was 8 and the “TRAE Nausea, subjects” value [1, 10] was 9. For the same molecule, the “TRAE Sinus bradycardia, subjects” value [1, 10] was 12, the dose-limiting toxicities ([1]; as of 10 Dec. 2018, 32 patients, 100 to 450 mg/day) was “No dose-limiting toxicities” and the “Grade 3 treatment related adverse events (TRAE), number” value ([1]; as of 10 Dec. 2018, 32 patients, 100 to 450 mg/day, lymphocyte count decrease) was “one”. The tolerability ([1]; as of 10 Dec. 2018, H3B-6545 drug product) was “well-tolerated up to the 450 mg dose level”, the “grade of TRAEs” value [1, 11] was “Most TRAEs were grade 1 or 2 and manageable” and the tolerated dose [1, 11] was “tolerated up to and including 450 mg QD”. The “ER target gene expression” value [2] was “inhibited ER target gene expression”, the “plasma concentration versus dose” value [3] was “increased with dose” and the “Partial responses (PRs), patients” value [4] was 3 patients. The “Stable disease, % of patients” value [4] was 47% and the “patients who completed at least 6 months of treatment” value [4] was 34%.
